Measurements published in ChEMBL document CHEMBL3301361, “Experimental in vitro DMPK and physicochemical data on a set of publicly disclosed compounds”.
Converted amounts (≈) assume the structure as drawn.

Columns and labels:
[1] = physchem; conditions: octan-1-ol/water, pH 7.4, LogD7.4
[2] = physchem; conditions: pH 7.4 buffer

With `O=C(Nc1ccc(N2CCOCC2)nc1)c1nnc(Nc2ccc(F)cc2)o1` the logD [1] was 3 and the solubility thermodynamic [2] was 2.6 µM (≈ 0.999 µg/mL).

`O=C(Nc1ccc(N2CCOCC2)nc1)c1nnc(Nc2cccc(OCc3ccccn3)c2)o1` gave a logD [1] of 3.1 and a solubility thermodynamic [2] of 6.3 µM (≈ 2.98 µg/mL).

`CC(C)(C(=O)Nc1nnc(C(=O)Nc2ccc(N3CCOCC3)cc2)o1)c1ccc(Cl)cc1` gave a logD [1] of 2.96 and a solubility thermodynamic [2] of 200 µM (≈ 93.8 µg/mL).

`O=C(Nc1ccc(N2CCOCC2)cc1)c1nnc(NC(=O)C2(c3ccc(Cl)cc3)CCC2)o1` showed a logD [1] of 3.2 and a solubility thermodynamic [2] of 66.1 µM (≈ 31.9 µg/mL).

Work on `O=C(Nc1ccc(N2CCOCC2)cc1)c1nnc(Nc2ccccc2)o1` yielded a logD [1] of 3.15 and a solubility thermodynamic [2] of 1.7 µM (≈ 0.621 µg/mL).

In the case of `CCCSc1nc2ccc(NC(=O)CCNC(N)=O)cc2s1`, the logD [1] is reported as 2.9 and the solubility thermodynamic [2] is reported as 93.3 µM (≈ 31.6 µg/mL).

Work on `COc1cc2ncnc(Nc3cccc(Cl)c3F)c2cc1CN1C[C@H](OC)C[C@@H]1C(N)=O` yielded a logD [1] of 3.09 and a solubility thermodynamic [2] of 436 µM (≈ 201 µg/mL).

Compound `C[C@@H]1CN(C(=O)OC(C)(C)C)CCN1c1ncc(OCc2ccc(C#N)cc2)cn1` has a logD [1] of 2.89 and a solubility thermodynamic [2] of 3.4 µM (≈ 1.39 µg/mL).

With `Cc1cc(Nc2nc(NCc3cc(C)no3)ncc2Br)[nH]n1` the logD [1] was 2.92 and the solubility thermodynamic [2] was 61.7 µM (≈ 22.5 µg/mL).

Compound `COCCCc1cc(Nc2nc(NCc3cc(C)no3)ncc2Br)[nH]n1` has a logD [1] of 3.07 and a solubility thermodynamic [2] of 120 µM (≈ 50.8 µg/mL).

`COc1cc(CCc2cc(Nc3ccnc(NCc4cc(C)no4)n3)n[nH]2)cc(OC)c1` gave a logD [1] of 3.1 and a solubility thermodynamic [2] of 0.6 µM (≈ 0.261 µg/mL).

For `CCCOc1nc(N2CCC[C@@H](CC(=O)O)C2)ccc1C(=O)NC1CCCCC1`, the logD [1] was 2.81 and the solubility thermodynamic [2] was 550 µM (≈ 222 µg/mL).

With `C[C@H](NC1=NC(=O)[C@@](C)(C(F)(F)F)S1)c1ccccc1F` the logD [1] was 3.1 and the solubility thermodynamic [2] was 219 µM (≈ 70.1 µg/mL).

Work on `CC[C@@H]1COCCN1c1cc(C2(S(C)(=O)=O)CC2)nc(-c2cccc3[nH]ccc23)n1` yielded a logD [1] of 3 and a solubility thermodynamic [2] of 79.4 µM (≈ 33.9 µg/mL).

With `O=C(COc1ccccc1)c1ccccc1` the logD [1] was 2.87 and the solubility thermodynamic [2] was 170 µM (≈ 36 µg/mL).

In the case of `COc1cc(Nc2cc(Nc3c(Cl)ccc4c3OCO4)ncn2)cc(OC)c1OC`, the logD [1] is reported as 3.07 and the solubility thermodynamic [2] is reported as 2.5 µM (≈ 1.08 µg/mL).

`C[C@@H](Oc1cccc2ncnc(Nc3ccc4c(cnn4Cc4ccccn4)c3)c12)C(=O)N1CCOCC1` showed a logD [1] of 2.82 and a solubility thermodynamic [2] of 95.5 µM (≈ 48.7 µg/mL).

In the case of `CCn1c2ccccc2c2cc(NC(=O)CN(C)C)ccc21`, the logD [1] is reported as 3.2 and the solubility thermodynamic [2] is reported as 219 µM (≈ 64.6 µg/mL).

For `O=c1cc(-c2ccc(O)cc2)oc2cc(O)ccc12`, the logD [1] was 3.2 and the solubility thermodynamic [2] was 2.3 µM (≈ 0.585 µg/mL).

With `O=c1[nH]c2cc(Cl)ccc2c(O)c1-c1cccc(Oc2ccccc2)c1` the logD [1] was 2.96 and the solubility thermodynamic [2] was 2.5 µM (≈ 0.909 µg/mL).

For `O=C(O)c1c(Sc2ccccc2)c2cc(Cl)ccc2n1Cc1ccc(Cl)cc1`, the logD [1] was 2.96 and the solubility thermodynamic [2] was 132 µM (≈ 56.5 µg/mL).

With `CN(C)C(=O)[C@H](Cc1ccccc1)NC(=O)c1cc2sccc2[nH]1` the logD [1] was 3.1 and the solubility thermodynamic [2] was 17 µM (≈ 5.8 µg/mL).

Compound `COc1cc(OC2CCN(C)CC2)c2c(Nc3cccc4c3OCO4)ncnc2c1` has a logD [1] of 3.02 and a solubility thermodynamic [2] of 91.2 µM (≈ 37.3 µg/mL).

Work on `C[C@H](NC1=NC(=O)[C@](C)(C(F)(F)F)S1)c1ccccc1F` yielded a logD [1] of 3.1 and a solubility thermodynamic [2] of 87.1 µM (≈ 27.9 µg/mL).

Work on `CC(=O)N1CCN(CCOc2cc(OC(C)C)c3c(Nc4c(F)ccc5c4OCO5)ncnc3c2)CC1` yielded a logD [1] of 3.06 and a solubility thermodynamic [2] of 27.5 µM (≈ 14.1 µg/mL).

Work on `C[C@@H](Oc1cccc2ncnc(Nc3ccc4c(cnn4Cc4ccccn4)c3)c12)C(=O)N(C)C` yielded a logD [1] of 2.89 and a solubility thermodynamic [2] of 295 µM (≈ 138 µg/mL).

Compound `Clc1cc(Nc2ncnc3[nH]nc(OCCN4CCCC4)c23)ccc1OCc1ccccn1` has a logD [1] of 2.87 and a solubility thermodynamic [2] of 12 µM (≈ 5.59 µg/mL).

Compound `COc1cc(Nc2ncnc(Nc3c(Cl)ccc4c3OCO4)n2)cc(OC)c1OC` has a logD [1] of 3.01 and a solubility thermodynamic [2] of 6.2 µM (≈ 2.68 µg/mL).

`C[C@@H](Oc1cccc2ncnc(Nc3ccc4c(cnn4Cc4cscn4)c3)c12)C(=O)N1CCOCC1` showed a logD [1] of 2.81 and a solubility thermodynamic [2] of 151 µM (≈ 78.1 µg/mL).

`Cc1cnc(NC(=O)Cc2ccccc2)s1` gave a logD [1] of 2.9 and a solubility thermodynamic [2] of 17 µM (≈ 3.95 µg/mL).

`COc1cc2ncc(C(N)=O)c(Nc3ccccc3F)c2cc1OC` showed a logD [1] of 2.81 and a solubility thermodynamic [2] of 21.9 µM (≈ 7.48 µg/mL).

With `CC(=O)OCCn1c(Sc2nc3cccc(Cl)c3s2)nc2c(N)ncnc21` the logD [1] was 3.16 and the solubility thermodynamic [2] was 4 µM (≈ 1.68 µg/mL).

For `C[C@H](NC1=NC(=O)C(C)(C(F)(F)F)S1)c1ccccc1F` (some centres not stated), the logD [1] was 3.1 and the solubility thermodynamic [2] was 339 µM (≈ 109 µg/mL).

With `CNC(=O)c1cc(-c2ccccc2)sc1NC(N)=O` the logD [1] was 3.19 and the solubility thermodynamic [2] was 12 µM (≈ 3.3 µg/mL).

`O=C(Nc1ncc(F)s1)[C@H](CC1CCOCC1)c1ccc(S(=O)(=O)C2CC2)cc1` showed a logD [1] of 3.19 and a solubility thermodynamic [2] of 214 µM (≈ 93.8 µg/mL).

In the case of `Cn1cnc(-c2ccccc2)c1C#Cc1ccnc(N)n1`, the logD [1] is reported as 2.94 and the solubility thermodynamic [2] is reported as 17 µM (≈ 4.68 µg/mL).

With `CSc1nc(N)nc(-c2ccccc2)n1` the logD [1] was 2.98 and the solubility thermodynamic [2] was 24 µM (≈ 5.24 µg/mL).

In the case of `Cc1cccc(C[C@H](NC(=O)c2cc(C(C)(C)C)nn2C)C(=O)NCC#N)c1`, the logD [1] is reported as 3.1 and the solubility thermodynamic [2] is reported as 63.1 µM (≈ 24.1 µg/mL).

With `O=C1NC(=O)C(Cc2cccc(Oc3ccccc3)c2)S1` (configuration not stated) the logD [1] was 2.84 and the solubility thermodynamic [2] was 339 µM (≈ 101 µg/mL).

Compound `Cn1c(C#N)ccc1-c1ccc2c(c1)C(C)(C)OC(=O)N2` has a logD [1] of 2.85 and a solubility thermodynamic [2] of 13.2 µM (≈ 3.71 µg/mL).

With `Cc1ccccc1Nc1ncnc2ccccc12` the logD [1] was 2.85 and the solubility thermodynamic [2] was 417 µM (≈ 98.1 µg/mL).
